Patent publication US9956232B2, “Dialkyl-phosphinoyl-alkane (Dapa) compounds and compositions for treatment of lower gastrointestinal tract disorders” (priority 2016, dated 2018)

How the values were obtained:
[1] = system: pentobarbital-anesthetized male rats; assay: Shaking frequency (wet-dog shaking) of anesthetized rats after intravenous, perioral or topical delivery; assay type: in vivo; conditions: anesthetized rat
Experimental: In experiments conducted here, test compounds were evaluated for “wet-dog shaking” as a model of cooling sensation. Using a standardized procedure, test compounds were compared in their ability to stimulate the shaking response by intravenous injection into a cannulated femoral vein, by perioral administration, and by topical delivery to the abdominal skin.
Each rat was given two injections with a 30 min interval. […] Shaking frequency was counted for 15 min after injection. Shaking was observed immediately after i.v. injection and at least 78% of the total shakes occurred in the first 5 min after injection. The response in the second trial was at least as robust in the first trial, showing the lack of desensitization.
Test compounds were dissolved in saline and administered by oral gavage to pentobarbital-anesthetized male albino rats at 20 mg/kg at a volume of 0.1 mL/100 g body weight [N=3 to 4 rats per compound]. Shaking was counted over a 40 min period and recorded at 10-min intervals.
For topical application of DAPA, the abdominal skin of the anesthetized rat was shaved and 20 μL of the pure DAPA was applied with a micropipette onto a ˜1 cm diameter circle of skin, enclosed with a ring of cream [Baby cream “Nevskaya kosmetika Detskyi” Nevskaya Kosmetika Inc., Saint-Petersburg 192029], as shown in FIG. 5D. The number of shakes was counted for 1 hr after application.

TRPM8 = TRPM8 (Homo sapiens, UniProt Q7Z2W7); assay: TRPM8 receptor agonist assay (Fluo-8 calcium, FLIPR); assay type: cell-based; set-up: host or cells: CHO cells, stably transfected
Experimental: Compounds were tested on (CHO) cells stably transfected with human TRPM8 cDNAs using a Fluo-8 calcium kit and a Fluorescence Imaging Plate Reader ([…]™) instrument. […] Solutions were prepared by diluting stock solutions in a HEPES-buffered physiological saline (HBPS) solution. Test compound and control formulations were loaded in polypropylene or glass-lined 384-well plates, and placed into the FLIPR instrument (Molecular Devices Corporation, Union City, Calif., USA). Each was tested at 8 concentrations with n=4 replicates per determination. […] For […]™ assay, cells were plated in 384-well black wall, flat clear-bottom microtiter plates (Type: BD Biocoat Poly-D-Lysine Multiwell Cell Culture Plate) at approximately 30,000 cells per well. Cells were incubated at 37° C. overnight to reach a near confluent monolayer appropriate for use in a fluorescence assay. The test procedure was to remove the growth media and to add 40 μL of HBPS containing Fluo-8 for 30 minutes at 37° C. 10 μL of test compound, vehicle, or control solutions in HBPS were added to each well and read for 4 minutes. Concentration-response data were analysed via the FLIPR Control software that is supplied with the FLIPR System (MDS-AT) and fitted to a Hill equation.

TRPV1 = TRPV1 (Homo sapiens, UniProt Q8NER1); assay: TRPV1 calcium imaging (Fura-2AM) in transfected KNRK cells; assay type: cell-based; set-up: expressed in transfected cells; host or cells: KNRK cells, transient transfection with Lipofectamine 2000; conditions: KNRK cells transiently transfected with TRPV1
Experimental: (§1) DAPA-1-9 was tested on TRPV1 channels and TRPA1 channels expressed in KNRK cells (Kirsten murine sarcoma virus transformed kidney epithelial cells). KNRK cells were cultured as a monolayer and maintained in DMEM (Life Technologies), supplemented with 10% FBS (Life Technologies), 100 units/ml penicillin and 100 μg/ml streptomycin, in an incubator of 5% CO2 at 37° C. After suspension, the cells were coated on cover slips for 12 hours, then transiently transfected with cDNA (pc3.1 DNA) for TRPV1 or TRPA1 with Lipofectamine 2000 (Invitrogen) for 24 hr, and loaded with Fura-2AM™ (Molecular Probes) for 40 min at 37° C. After washing and recovery, KNRK cells were imaged at 340 and 380 nm excitation to detect free calcium influx. An increase of 50% of the 340/380 ratio was considered as the response threshold which were measured under blinded conditions for plasmids. Compounds were applied to the bath and calcium response was acquired by an inverted Nikon fluorescence microscope with a CoolSnap HQ2 CCD camera (Photometrics, Tucson, Ariz.). Data were quantified offline with the Nikon-NIS program.

TRPA1 = TRPA1 (Homo sapiens, UniProt O75762); assay: TRPA1 calcium imaging (Fura-2AM) in transfected KNRK cells; assay type: cell-based; set-up: expressed in transfected cells; host or cells: KNRK cells, transient transfection with Lipofectamine 2000; conditions: KNRK cells transiently transfected with TRPA1
Experimental: as §1

Sequence of TRPM8 (Q7Z2W7 whole entry): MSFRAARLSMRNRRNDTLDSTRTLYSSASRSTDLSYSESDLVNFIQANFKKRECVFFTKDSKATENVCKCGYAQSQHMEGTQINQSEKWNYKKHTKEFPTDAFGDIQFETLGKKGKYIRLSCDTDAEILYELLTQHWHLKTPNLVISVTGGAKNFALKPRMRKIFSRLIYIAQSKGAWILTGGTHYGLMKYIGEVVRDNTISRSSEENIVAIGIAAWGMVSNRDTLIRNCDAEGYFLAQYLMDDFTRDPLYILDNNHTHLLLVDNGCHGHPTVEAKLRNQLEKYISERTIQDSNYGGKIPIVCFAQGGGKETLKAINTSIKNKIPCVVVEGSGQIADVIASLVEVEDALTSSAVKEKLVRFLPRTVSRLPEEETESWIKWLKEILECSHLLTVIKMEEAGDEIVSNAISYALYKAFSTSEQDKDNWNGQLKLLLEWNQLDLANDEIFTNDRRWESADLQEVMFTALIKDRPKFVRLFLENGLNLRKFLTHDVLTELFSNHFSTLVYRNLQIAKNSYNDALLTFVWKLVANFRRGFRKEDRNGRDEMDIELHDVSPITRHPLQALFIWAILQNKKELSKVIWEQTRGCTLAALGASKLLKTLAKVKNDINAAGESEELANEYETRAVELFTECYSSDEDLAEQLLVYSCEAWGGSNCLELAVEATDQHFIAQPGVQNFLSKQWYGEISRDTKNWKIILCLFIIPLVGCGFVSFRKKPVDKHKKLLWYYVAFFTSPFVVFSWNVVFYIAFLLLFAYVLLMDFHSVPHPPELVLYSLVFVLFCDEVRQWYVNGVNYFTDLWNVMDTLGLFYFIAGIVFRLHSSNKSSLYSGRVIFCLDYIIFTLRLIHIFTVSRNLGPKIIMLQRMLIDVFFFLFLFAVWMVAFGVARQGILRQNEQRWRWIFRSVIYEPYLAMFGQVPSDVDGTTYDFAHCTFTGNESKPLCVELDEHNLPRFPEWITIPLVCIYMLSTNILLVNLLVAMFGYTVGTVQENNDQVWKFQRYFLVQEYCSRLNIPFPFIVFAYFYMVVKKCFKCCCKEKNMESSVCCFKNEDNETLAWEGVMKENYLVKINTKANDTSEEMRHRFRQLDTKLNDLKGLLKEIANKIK
Sequence of TRPV1 (Q8NER1 whole entry, species assumed): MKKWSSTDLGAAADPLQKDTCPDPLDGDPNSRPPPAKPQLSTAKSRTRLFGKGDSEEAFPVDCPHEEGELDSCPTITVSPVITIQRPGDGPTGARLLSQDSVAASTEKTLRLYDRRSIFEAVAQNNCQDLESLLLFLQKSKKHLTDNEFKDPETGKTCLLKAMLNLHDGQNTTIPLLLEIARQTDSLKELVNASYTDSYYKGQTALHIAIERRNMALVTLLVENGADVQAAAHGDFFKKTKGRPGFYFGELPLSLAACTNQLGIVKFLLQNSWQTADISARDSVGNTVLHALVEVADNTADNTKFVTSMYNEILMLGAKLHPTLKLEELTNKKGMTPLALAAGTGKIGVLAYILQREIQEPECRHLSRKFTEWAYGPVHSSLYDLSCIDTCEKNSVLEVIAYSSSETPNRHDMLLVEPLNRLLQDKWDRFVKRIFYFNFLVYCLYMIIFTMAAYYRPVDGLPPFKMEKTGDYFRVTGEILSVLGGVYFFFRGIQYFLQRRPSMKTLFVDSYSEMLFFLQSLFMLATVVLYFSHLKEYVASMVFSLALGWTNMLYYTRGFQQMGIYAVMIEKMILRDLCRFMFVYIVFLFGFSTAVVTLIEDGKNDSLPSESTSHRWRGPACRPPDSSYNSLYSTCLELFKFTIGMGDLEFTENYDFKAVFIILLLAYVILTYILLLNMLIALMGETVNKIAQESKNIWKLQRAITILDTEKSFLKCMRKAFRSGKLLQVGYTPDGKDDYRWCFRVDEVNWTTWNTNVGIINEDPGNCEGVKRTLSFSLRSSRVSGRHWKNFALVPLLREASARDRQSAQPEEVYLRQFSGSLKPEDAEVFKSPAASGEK
Sequence of TRPA1 (O75762 whole entry, species assumed): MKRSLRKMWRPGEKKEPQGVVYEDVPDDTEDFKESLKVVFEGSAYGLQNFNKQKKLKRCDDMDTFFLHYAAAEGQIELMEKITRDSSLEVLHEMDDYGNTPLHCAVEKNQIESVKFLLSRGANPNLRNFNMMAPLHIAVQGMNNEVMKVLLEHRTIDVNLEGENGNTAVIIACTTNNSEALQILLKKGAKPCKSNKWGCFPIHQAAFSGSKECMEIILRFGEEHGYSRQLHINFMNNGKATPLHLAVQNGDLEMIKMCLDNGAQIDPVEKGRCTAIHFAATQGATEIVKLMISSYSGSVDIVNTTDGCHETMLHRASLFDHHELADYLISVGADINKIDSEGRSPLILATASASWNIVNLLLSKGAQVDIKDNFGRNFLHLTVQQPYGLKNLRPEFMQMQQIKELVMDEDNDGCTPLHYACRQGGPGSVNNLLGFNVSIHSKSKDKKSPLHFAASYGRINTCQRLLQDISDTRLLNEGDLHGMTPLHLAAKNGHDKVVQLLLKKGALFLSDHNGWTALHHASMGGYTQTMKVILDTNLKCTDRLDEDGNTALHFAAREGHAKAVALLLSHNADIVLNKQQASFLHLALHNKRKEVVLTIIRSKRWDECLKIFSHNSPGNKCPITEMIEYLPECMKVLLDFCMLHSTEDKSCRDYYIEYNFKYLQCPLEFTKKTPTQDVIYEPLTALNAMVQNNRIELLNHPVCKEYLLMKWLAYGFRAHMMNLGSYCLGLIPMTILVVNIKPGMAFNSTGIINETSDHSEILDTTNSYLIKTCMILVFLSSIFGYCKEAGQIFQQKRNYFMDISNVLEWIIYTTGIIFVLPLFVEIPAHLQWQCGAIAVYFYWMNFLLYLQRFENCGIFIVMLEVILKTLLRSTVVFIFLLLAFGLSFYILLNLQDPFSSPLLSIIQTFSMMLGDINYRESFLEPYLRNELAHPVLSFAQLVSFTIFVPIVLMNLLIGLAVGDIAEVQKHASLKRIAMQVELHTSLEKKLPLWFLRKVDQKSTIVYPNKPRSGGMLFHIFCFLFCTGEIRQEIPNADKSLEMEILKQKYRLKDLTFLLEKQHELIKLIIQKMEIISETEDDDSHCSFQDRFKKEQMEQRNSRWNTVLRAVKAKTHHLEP

×Menthol (TRPM8; TRPM8 relative potency as repeated in Table 4): 4.0
Relative Potency (TRPM8; relative to menthol = 1.0 (Table 2)): 4.0
SMILES: CCCCCCCCCP(=O)(C(C)C)C(C)C [DIPA-1-9, 1-[Diisopropyl-phosphinoyl]-nonane]
Shaking frequency, Intravenous ([1]; 2 mg/kg i.v., 2nd trial, counted for 15 min): 3 ± 1 shakes
Shaking frequency, Perioral ([1]; 20 mg/kg by oral gavage, counted for 40 min): 0 shakes
Shaking frequency, Topical ([1]; 20 μL pure compound on shaved abdominal skin, counted for 1 hr): 0 shakes
agonist or antagonist activities against TRPV1 (TRPV1): devoid of agonist or antagonist activities
agonist or antagonist activities against TRPA1 (TRPA1): devoid of agonist or antagonist activities
